The source of these data is patent US20080026074A1, “Method of short term skin wrinkles correction using strontium divalent ion” (priority 2006, published 2008).

The test system of data set [1] is photoaged skin. In words: topical application of strontium ion in a carrier to skin. The class given is in vivo. As to conditions: carrier e.g. distillate of orange flower petals (neroli floral water), within minutes of application. The method, then: The epidermal ridges are less pronounced, an effect that may be related to relaxation of erector muscles.
This effect lasted for about 4 hours.

For data set [2] the following is noted: taken orally, long term use; cited from earlier work.

Structures are written as SMILES.

For `[Sr+2]` [strontium ion], the “effect on skin texture” value in data set [1] is recorded as “changes the texture of photoaged skin, resulting in a more youthful complexion”. Moreover, the toxicity result in data set [2] is recorded as “toxicity is not a problem”.
